Source: patent US10457709B2, “Antimicrobial peptides, their variants and uses” (priority 2015, dated 2019)
Values after ≈ are worked out from the molar mass of the structure shown. Read-outs that look alike come from different tables or passages of the source. Square brackets hold non-standard residues; d marks the D form. Peptide text beside a SMILES is read from it.

Tests used:
[1] = test system: all the bacteria and yeasts tested; format: cell-based
Outline: (§1)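 MIC = lowest concentration without visual growth after 20–24 h at 37° C. Microbroth dilution, 5.0×10^5 cfu/ml, 0.125–128 μg/ml range; MH broth for bacteria, potato dextrose broth for yeasts.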

[2] = test system: Pseudomonas aeruginosa clinical strains; format: cell-based; conditions: microdilution, Muller Hinton broth-cation adjusted, 0.02% BSA, 0.2% acetic acid
Outline: as §1

[3] = test system: Acinetobacter johnsonii clinical strains; format: cell-based; conditions: Acinetobacter johnsonii clinical strain 1; microdilution, Muller Hinton broth-cation adjusted, 0.02% BSA, 0.2% acetic acid
Outline: as §1

[4] = test system: Klebsiella pneumoniae clinical strains; format: cell-based; conditions: microdilution, Muller Hinton broth-cation adjusted, 0.02% BSA, 0.2% acetic acid
Outline: as §1

[5] = test system: Escherichia coli clinical strains; format: cell-based; conditions: for Minimum inhibitory concentration: microdilution, Muller Hinton broth-cation adjusted, 0.02% BSA, 0.2% acetic acid
Outline: as §1

[6] = test system: Candida albicans clinical strains; test: MIC, clinical yeast strains; format: cell-based; design: unit: μg/ml
Outline: as §1

[7] = test system: Proteus mirabilis clinical strains; format: cell-based; design: Minimum inhibitory concentration: unit: μg/ml; conditions: microdilution, Muller Hinton broth-cation adjusted, 0.02% BSA, 0.2% acetic acid
Outline: as §1

[8] = test system: Streptococcus pneumoniae clinical strains; format: cell-based; design: Minimum inhibitory concentration: unit: μg/ml; conditions: microdilution, Muller Hinton broth-cation adjusted, 0.02% BSA, 0.2% acetic acid
Outline: as §1

[9] = test system: Serratia marcescens clinical strains; format: cell-based; design: Minimum inhibitory concentration: unit: μg/ml; conditions: microdilution, Muller Hinton broth-cation adjusted, 0.02% BSA, 0.2% acetic acid
Outline: as §1

[10] = test system: Staphylococcus aureus clinical strains; format: cell-based; design: Minimum inhibitory concentration: unit: μg/ml; conditions: microdilution, Muller Hinton broth-cation adjusted, 0.02% BSA, 0.2% acetic acid
Outline: as §1

[11] = test system: Enterobacter cloacae clinical strains; format: cell-based; design: Minimum inhibitory concentration: unit: μg/ml; conditions: microdilution, Muller Hinton broth-cation adjusted, 0.02% BSA, 0.2% acetic acid
Outline: as §1

[12] = test system: Acinetobacter baumannii clinical strains; format: cell-based; design: Minimum inhibitory concentration: unit: μg/ml; conditions: microdilution, Muller Hinton broth-cation adjusted, 0.02% BSA, 0.2% acetic acid
Outline: as §1

[13] = test system: C. quillermondiae clinical strains; test: MIC, clinical yeast strains; format: cell-based, Candida quillermondiae; design: unit: μg/ml; conditions: C. quillermondiae clinical yeast strain 1
Outline: as §1

[14] = test system: C. glabrata clinical strains; test: MIC, clinical yeast strains; format: cell-based, Candida glabrata; design: unit: µg/ml
Outline: as §1

[15] = test system: C. parapsilosis clinical strains; test: MIC, clinical yeast strains; format: cell-based, Candida parapsilosis; design: unit: µg/ml
Outline: as §1

MIC against the rest of the bacterial strains [1]: > 32 mg/L
MIC against E. coli ([5]; clinical strains): 1 mg/L (≈ 0.619 µM)
Structure (SMILES): CC(C)C[C@@H](NC(=O)[C@H](N)CCCNC(=N)N)C(=O)N[C@H](CCCCN)C(=O)N[C@H](CCCNC(=N)N)C(=O)N[C@H](Cc1c[nH]c2ccccc12)C(=O)N[C@H](CCCNC(=N)N)C(=O)N[C@H](CC(C)C)C(=O)N[C@H](Cc1ccccc1)C(=O)N[C@H](CCCNC(=N)N)C(=O)N[C@H](CCCCN)C(=O)N[C@H](CCCNC(=N)N)C(=O)O [Chain306D] (H-[dR][dL][dK][dR][dW][dR][dL][dF][dR][dK][dR]-OH)
Minimum inhibitory concentration ([2]; Pseudomonas aeruginosa clinical strain 1): 128
Minimum inhibitory concentration ([2]; Pseudomonas aeruginosa clinical strain 2): >128
Minimum inhibitory concentration ([2]; Pseudomonas aeruginosa clinical strain 3): 128
Minimum inhibitory concentration ([2]; Pseudomonas aeruginosa clinical strain 4): >128
Minimum inhibitory concentration ([2]; Pseudomonas aeruginosa clinical strain 5): 128
Minimum inhibitory concentration [3]: 16
Minimum inhibitory concentration ([4]; Klebsiella pneumoniae clinical strain 1): 128
Minimum inhibitory concentration ([4]; Klebsiella pneumoniae clinical strain 2): >128
Minimum inhibitory concentration ([4]; Klebsiella pneumoniae clinical strain 3): >128
Minimum inhibitory concentration ([4]; Klebsiella pneumoniae clinical strain 4): 64
Minimum inhibitory concentration ([4]; Klebsiella pneumoniae clinical strain 5): 64
Minimum inhibitory concentration ([5]; Escherichia coli clinical strain 1): 1
Minimum inhibitory concentration ([5]; Escherichia coli clinical strain 2): 2
Minimum inhibitory concentration ([5]; Escherichia coli clinical strain 3): 2
Minimum inhibitory concentration ([5]; Escherichia coli clinical strain 4): 2
Minimum inhibitory concentration ([5]; Escherichia coli clinical strain 5): 2
Minimum inhibitory concentration ([6]; Candida albicans clinical yeast strain 1): 16
Minimum inhibitory concentration ([6]; Candida albicans clinical yeast strain 2): 8
Minimum inhibitory concentration ([6]; Candida albicans clinical yeast strain 3): 8
Minimum inhibitory concentration ([6]; Candida albicans clinical yeast strain 4): 16
Minimum inhibitory concentration ([6]; Candida albicans clinical yeast strain 5): 16
Minimum inhibitory concentration ([7]; Proteus mirabilis clinical strain 1): >128
Minimum inhibitory concentration ([7]; Proteus mirabilis clinical strain 2): >128
Minimum inhibitory concentration ([7]; Proteus mirabilis clinical strain 3): >128
Minimum inhibitory concentration ([7]; Proteus mirabilis clinical strain 4): >128
Minimum inhibitory concentration ([7]; Proteus mirabilis clinical strain 5): >128
Minimum inhibitory concentration ([8]; Streptococcus pneumoniae clinical strain 1): 64
Minimum inhibitory concentration ([8]; Streptococcus pneumoniae clinical strain 2): 64
Minimum inhibitory concentration ([8]; Streptococcus pneumoniae clinical strain 3): 64
Minimum inhibitory concentration ([8]; Streptococcus pneumoniae clinical strain 4): 128
Minimum inhibitory concentration ([8]; Streptococcus pneumoniae clinical strain 5): 64
Minimum inhibitory concentration ([9]; Serratia marcescens clinical strain 1): >128
Minimum inhibitory concentration ([9]; Serratia marcescens clinical strain 2): >128
Minimum inhibitory concentration ([9]; Serratia marcescens clinical strain 3): >128
Minimum inhibitory concentration ([9]; Serratia marcescens clinical strain 4): >128
Minimum inhibitory concentration ([9]; Serratia marcescens clinical strain 5): >128
Minimum inhibitory concentration ([10]; Staphylococcus aureus clinical strain 1): 16
Minimum inhibitory concentration ([10]; Staphylococcus aureus clinical strain 2): 32
Minimum inhibitory concentration ([10]; Staphylococcus aureus clinical strain 3): 32
Minimum inhibitory concentration ([10]; Staphylococcus aureus clinical strain 4): 16
Minimum inhibitory concentration ([10]; Staphylococcus aureus clinical strain 5): 8
Minimum inhibitory concentration ([11]; Enterobacter cloacae clinical strain 1): 64
Minimum inhibitory concentration ([11]; Enterobacter cloacae clinical strain 2): 64
Minimum inhibitory concentration ([11]; Enterobacter cloacae clinical strain 3): 32
Minimum inhibitory concentration ([11]; Enterobacter cloacae clinical strain 4): 16
Minimum inhibitory concentration ([11]; Enterobacter cloacae clinical strain 5): 16
Minimum inhibitory concentration ([12]; Acinetobacter baumannii clinical strain 1): 16
Minimum inhibitory concentration ([12]; Acinetobacter baumannii clinical strain 2): 32
Minimum inhibitory concentration ([12]; Acinetobacter baumannii clinical strain 3): 16
Minimum inhibitory concentration ([12]; Acinetobacter baumannii clinical strain 4): 16
Minimum inhibitory concentration ([12]; Acinetobacter baumannii clinical strain 5): 8
Minimum inhibitory concentration [13]: 4
Minimum inhibitory concentration ([14]; C. glabrata clinical yeast strain 1): 8
Minimum inhibitory concentration ([14]; C. glabrata clinical yeast strain 2): 8
Minimum inhibitory concentration ([14]; C. glabrata clinical yeast strain 3): 16
Minimum inhibitory concentration ([14]; C. glabrata clinical yeast strain 4): 32
Minimum inhibitory concentration ([15]; C. parapsilosis clinical yeast strain 1): 8
Minimum inhibitory concentration ([15]; C. parapsilosis clinical yeast strain 2): 16
Minimum inhibitory concentration ([15]; C. parapsilosis clinical yeast strain 3): 16
Minimum inhibitory concentration ([15]; C. parapsilosis clinical yeast strain 4): 4
